Assay results: the supplement of paper PMC10307832

Tests used:
Assay in all cases: relative viability (nuclei count vs DMSO), 5 days (fraction); higher = more cells survive
Bortezomib + Trametinib = compound: CC(C)C[C@H](NC(=O)[C@H](Cc1ccccc1)NC(=O)c1cnccn1)B(O)O [Bortezomib] + CC(=O)Nc1cccc(-n2c(=O)n(C3CC3)c(=O)c3c(Nc4ccc(I)cc4F)n(C)c(=O)c(C)c32)c1 [Trametinib] (partner 0.02 µM)
In short: (§1)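 Relative viability equals treated-well nuclei counts divided by vehicle-well nuclei counts. Counts came from 4× images of lung cancer cell lines grown in 1536-well plates for 5 days after pin-tool dosing on the day after seeding. Dosing used one drug alone or a fixed anchor-drug dose plus five library-drug doses (not always all listed) in √10 steps, and values are medians of duplicate plates.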

Bortezomib + Navitoclax = compound: CC(C)C[C@H](NC(=O)[C@H](Cc1ccccc1)NC(=O)c1cnccn1)B(O)O [Bortezomib] + CC1(C)CCC(c2ccc(Cl)cc2)=C(CN2CCN(c3ccc(C(=O)NS(=O)(=O)c4ccc(N[C@H](CCN5CCOCC5)CSc5ccccc5)c(S(=O)(=O)C(F)(F)F)c4)cc3)CC2)C1 [Navitoclax] (partner 0.5 µM)
In short: as §1

[1] = compound: CC1=CC(=NN1)NC2=CC(=NC(=N2)/C=C/C3=CC=CC=C3)N4CCN(CC4)C + C[C@@H](Oc1cc(-c2cnn(C3CCNCC3)c2)cnc1N)c1c(Cl)ccc(F)c1Cl [Crizotinib] (partner 1 µM)
In short: as §1

Bortezomib + Linsitinib = compound: CC(C)C[C@H](NC(=O)[C@H](Cc1ccccc1)NC(=O)c1cnccn1)B(O)O [Bortezomib] + C[C@]1(O)C[C@@H](c2nc(-c3ccc4ccc(-c5ccccc5)nc4c3)c3c(N)nccn32)C1 [Linsitinib] (partner 1 µM)
In short: as §1

| Cell Line | relative viability (Bortezomib + Trametinib; first compound 0.0002 µM) | relative viability (Bortezomib + Trametinib; first compound 0.000632 µM) | relative viability (Bortezomib + Trametinib; first compound 0.002 µM) | relative viability (Bortezomib + Trametinib; first compound 0.006325 µM) | relative viability (Bortezomib + Trametinib; first compound 0.02 µM) | relative viability (Bortezomib + Navitoclax; first compound 0.0002 µM) | relative viability (Bortezomib + Navitoclax; first compound 0.000632 µM) | relative viability (Bortezomib + Navitoclax; first compound 0.002 µM) | relative viability (Bortezomib + Navitoclax; first compound 0.006325 µM) | relative viability (Bortezomib + Navitoclax; first compound 0.02 µM) | relative viability ([1]; first compound 0.08 µM) | relative viability ([1]; first compound 0.253 µM) | relative viability ([1]; first compound 0.8 µM) | relative viability ([1]; first compound 2.53 µM) | relative viability ([1]; first compound 8 µM) | relative viability (Bortezomib + Linsitinib; first compound 0.0002 µM) | relative viability (Bortezomib + Linsitinib; first compound 0.000632 µM) | relative viability (Bortezomib + Linsitinib; first compound 0.002 µM) | relative viability (Bortezomib + Linsitinib; first compound 0.006325 µM) | relative viability (Bortezomib + Linsitinib; first compound 0.02 µM) |
| --- | --- | --- | --- | --- | --- | --- | --- | --- | --- | --- | --- | --- | --- | --- | --- | --- | --- | --- | --- | --- |
| LK-2 | 0.68 | 0.597 | 0.332 | 0.156 | 0.196 | 0.828 | 0.878 | 0.238 | 0.172 | 0.174 | 0.193 | 0.221 | 0.208 | 0.262 | 0.203 | 0.409 | 0.551 | 0.353 | 0.17 | 0.142 |
| NCI-H441 | 0.428 | 0.482 | 0.153 | 0.131 | 0.127 | 0.4 | 0.612 | 0.31 | 0.17 | 0.143 | 0.689 | 0.794 | 0.457 | 0.254 | 0.15 | 0.497 | 0.41 | 0.406 | 0.343 | 0.103 |
| NCI-H23 | 0.343 | – | 0.286 | 0.193 | 0.114 | – | 0.495 | 0.834 | 0.212 | 0.126 | 0.559 | 0.603 | 0.439 | 0.181 | 0.108 | – | 0.574 | 0.586 | 0.276 | 0.114 |
| NCI-H647 | 0.471 | 0.404 | 0.542 | 0.0211 | 0.0513 | 0.997 | 1.1 | 0.619 | 0.0302 | 0.0207 | 1.19 | 1.06 | 0.683 | 0.0821 | 0.0474 | 1.09 | 1.28 | 1.12 | 0.0274 | 0.0402 |
| 201T | 0.732 | 0.72 | 0.685 | 0.625 | 0.262 | 1.21 | 1.19 | 1.21 | 1.22 | 1.23 | 1.01 | 1.07 | 0.965 | 0.982 | 0.786 | 1.04 | 1.1 | 0.921 | 1.08 | 0.4 |
| NCI-H1734 | 0.647 | 0.7 | 0.685 | 0.161 | 0.0924 | 0.86 | 0.872 | 0.662 | 0.112 | 0.0892 | 0.632 | 0.722 | 0.522 | 0.331 | 0.123 | 0.898 | 0.674 | 0.814 | 0.192 | 0.129 |
| NCI-H596 | 0.835 | 0.773 | 0.568 | 0.208 | 0.168 | 0.921 | 0.817 | 0.925 | 0.123 | 0.131 | 0.984 | 1.04 | 0.857 | 0.554 | 0.197 | 0.894 | 0.813 | 1.09 | 0.233 | 0.18 |
